Data reported in PMC8617507 (Proceedings of the National Academy of Sciences of the …, 2021).
Several values for one entry are separate records, joined by “and”; a condition that tells them apart may be missing. Equal entries are not always repeated. Where two headings read alike, the source gives them in different places.

Tests used:
[1] = system: S. pneumoniae; assay: MIC, broth microdilution; assay type: cell-based, Streptococcus pneumoniae; conditions: for MIC: Streptococcus pneumoniae, S. pneumoniae T4 in supplemented C+Y medium, most abundant MIC, Table 2; for reduction in MIC in comparison to THCz-1: S. pneumoniae T4, vs. original screening hit THCz-1
[2] = system: B. subtilis PypuA-lacZ (cell wall) bioreporter; assay: β-Galactosidase reporter assay, cell wall reporter; assay type: cell-based, Bacillus subtilis; conditions: 10 µg THCz-1, 20 µg THCz-40, 80 µg THCz-39, 100 µg THCz-5 spotted on agar
[3] = system: B. subtilis PliaI-lux LiaRS bioreporter; assay: Luciferase reporter assay; assay type: cell-based, Bacillus subtilis; conditions: 2 µg/mL THCz-1, 128 µg/mL THCz-5, 8 µg/mL THCz-39, 4 µg/mL THCz-40
[4] = system: B. subtilis GFP-MinD; assay: MinD delocalization studies; assay type: cell-based, Bacillus subtilis; conditions: within 5 min
[5] = system: Lung epithelial A549 cells
[6] = system: Lung epithelial A549 cells; assay: cells; conditions: Homo sapiens
[7] = system: B. subtilis 168; assay: Bacterial cell wall integrity assay; assay type: cell-based, Bacillus subtilis; conditions: 30 min exposure; phase-contrast microscopy
[8] = system: PBP2; assay: PBP2-catalyzed transglycosylation of lipid II in vitro; assay type: biochemical, S. aureus; conditions: compared to THCz-1 and THCz-40
[9] = system: S. pneumoniae T4; assay: Lysis and killing kinetics; conditions: THCz-1 5.1 µg/mL, penicillin G 0.06 μg/mL, tetracycline 2 μg/mL

Compound	MIC [1]	induction of the cell wall responsive reporter strain [2]	IC50 [6]	cell shape deformations / cell membrane blebbing [7]	also measured
c1ccc(CCOC2CCCc3c2[nH]c2ccccc32)cc1 (centres unmarked) [THCz-5]	> 100 µM and > 29.1 µg/mL	but not THCz-5	141 µM and 41 µg/mL		induction of PliaI-lux bioluminescence (LiaRS stress response) [3]: except for the inactive analog THCz-5; delocalization of GFP-MinD (membrane depolarization) [4]: MinD delocalization was also observed; increase of IC50 (cytotoxicity) ([5]; THCz-5 vs. THCz-19): about sixfold
c1ccc(CCNC2CCCc3c2oc2ccc(-c4ccccc4)cc32)cc1 (centres unmarked) [THCz-6]	50 µM and 18.4 µg/mL		134 µM and 49.3 µg/mL		increase of IC50 (cytotoxicity) ([5]; THCz-6 vs. THCz-2): about sevenfold
c1ccc(CCNC2CCCc3c2[nH]c2ccccc32)cc1 (centres unmarked) [THCz-19]	6.3 µM and 1.9 µg/mL		22.2 µM and 6.8 µg/mL		
Cc1ccc2[nH]c3c(c2c1)CCCC3NCCc1ccc(O)cc1 (centres unmarked) [THCz-39]	6.3 µM to 12.5 µM and 2 µg/mL to 4 µg/mL	specifically induced	33.4 µM and 10.7 µg/mL	induced characteristic cell shape deformations	reduction in MIC in comparison to THCz-1 [1]: twofold to fourfold; higher concentration required for full inhibition of the PBP2-catalyzed reaction [8]: fourfold
Cc1ccc2[nH]c3c(c2c1)CCCC3NCCc1ccc(Br)cc1 (centres unmarked) [THCz-40]	6.3 µM and 2.4 µg/mL	specifically induced	28 µM and 10.7 µg/mL	induced characteristic cell shape deformations	reduction in MIC in comparison to THCz-1 [1]: twofold to fourfold
CN(C)[C@@H]1C(O)=C(C(N)=O)C(=O)[C@@]2(O)C(O)=C3C(=O)c4c(O)cccc4[C@@](C)(O)[C@H]3C[C@@H]12 [Tet, tetracycline]					lysis kinetics [9]: growth-inhibitory phenotype without any prominent lysis
CN[C@H](CC(C)C)C(=O)N[C@H]1C(=O)N[C@@H](CC(N)=O)C(=O)N[C@H]2C(=O)N[C@H]3C(=O)N[C@H](C(=O)N[C@H](C(=O)O)c4cc(O)cc(O)c4-c4cc3ccc4O)[C@H](O)c3ccc(c(Cl)c3)Oc3cc2cc(c3O[C@@H]2O[C@H](CO)[C@@H](O)[C@H](O)[C@H]2O[C@H]2C[C@](C)(N)[C@H](O)[C@H](C)O2)Oc2ccc(cc2Cl)[C@H]1O [vancomycin]				Membrane blebbing was also observed	
bacitracin				Membrane blebbing was also observed	
nisin (ITSISLCTPGCKTGALMGCNMKTATCHCSIHVSK; not fully specified; Lantibiotic nisin-A; UniProt P13068 24-57, looked up)				Membrane blebbing was also observed	
